Key:
[1] = Cytotoxicity against human colon cancer cells assessed as cellular growth at 10 uM after 48 hrs by SRB assay relative to control; type: functional, Cancer cell lines
[2] = Cytotoxicity against human CNS cancer cells assessed as cellular growth at 10 uM after 48 hrs by SRB assay relative to control; type: functional, Cancer cell lines
[3] = Cytotoxicity against human NCI-ADR-RES cells assessed as cellular growth at 0.01 uM after 48 hrs by SRB assay relative to control; type: functional
HCT-15 [4] = assay: Cytotoxicity against human HCT15 cells assessed as cellular growth at 0.01 uM after 48 hrs by SRB assay relative to control; type: functional
NCI-H460 = assay: Cytotoxicity against human NCI-H460 cells assessed as cellular growth at 0.01 uM after 48 hrs by SRB assay relative to control; type: functional
PC-3 [5] = assay: Cytotoxicity against human PC3 cells assessed as cellular growth at 100 uM after 48 hrs by SRB assay relative to control; type: functional
CCRF-CEM = assay: Cytotoxicity against human CCRF-CEM cells assessed as cellular growth at 0.01 uM after 48 hrs by SRB assay relative to control; type: functional
ACHN = assay: Cytotoxicity against human ACHN cells assessed as cellular growth at 100 uM after 48 hrs by SRB assay relative to control; type: functional
[6] = Cytotoxicity against human NCI-ADR-RES cells assessed as cellular growth at 100 uM after 48 hrs by SRB assay relative to control; type: functional
HT-29 [7] = assay: Cytotoxicity against human HT-29 cells assessed as cellular growth at 100 uM after 48 hrs by SRB assay relative to control; type: functional
NCI-H522 = assay: Cytotoxicity against human NCI-H522 cells assessed as cellular growth at 100 uM after 48 hrs by SRB assay relative to control; type: functional
COLO 205 = assay: Cytotoxicity against human COLO205 cells assessed as cellular growth at 100 uM after 48 hrs by SRB assay relative to control; type: functional
786-0 [8] = assay: Cytotoxicity against human 786-0 cells assessed as cellular growth at 10 uM after 48 hrs by SRB assay relative to control; type: functional
MDA-MB-468 = assay: Cytotoxicity against human MDA-MB-468 cells after 48 hrs by SRB assay; type: functional; conditions: MDA-MB-468, 48 h
PC-3 [9] = assay: Cytotoxicity against human PC3 cells assessed as cellular growth at 1 uM after 48 hrs by SRB assay relative to control; type: functional
786-0 [10] = assay: Cytotoxicity against human 786-0 cells assessed as cellular growth at 1 uM after 48 hrs by SRB assay relative to control; type: functional
OVCAR-5 [11] = assay: Cytotoxicity against human OVCAR5 cells assessed as cellular growth at 1 uM after 48 hrs by SRB assay relative to control; type: functional
HT-29 [12] = assay: Cytotoxicity against human HT-29 cells assessed as cellular growth at 1 uM after 48 hrs by SRB assay relative to control; type: functional
HCT-15 [13] = assay: Cytotoxicity against human HCT15 cells assessed as cellular growth at 1 uM after 48 hrs by SRB assay relative to control; type: functional
PC-3 [14] = assay: Cytotoxicity against human PC3 cells after 48 hrs by SRB assay; type: functional; conditions: PC-3, 48 h
[15] = Cytotoxicity against human NCI-ADR-RES cells after 48 hrs by SRB assay; type: functional
OVCAR-5 [16] = assay: Cytotoxicity against human OVCAR5 cells after 48 hrs by SRB assay; type: functional; conditions: OVCAR-5, 48 h
OVCAR-4 = assay: Cytotoxicity against human OVCAR4 cells after 48 hrs by SRB assay; type: functional; conditions: OVCAR-4, 48 h
IGROV-1 = assay: Cytotoxicity against human IGROV1 cells after 48 hrs by SRB assay; type: functional; conditions: IGROV-1, 48 h
U-251 = assay: Cytotoxicity against human U251 cells after 48 hrs by SRB assay; type: functional; conditions: U-251, 48 h
SNB-75 = assay: Cytotoxicity against human SNB75 cells after 48 hrs by SRB assay; type: functional; conditions: SNB-75, 48 h
SF-295 = assay: Cytotoxicity against human SF295 cells after 48 hrs by SRB assay; type: functional; conditions: SF-295, 48 h
PC-3 [17] = assay: Cytotoxicity against human PC3 cells assessed as cellular growth at 0.1 uM after 48 hrs by SRB assay relative to control; type: functional
HCT-116 = assay: Cytotoxicity against human HCT116 cells assessed as cellular growth at 0.1 uM after 48 hrs by SRB assay relative to control; type: functional
NCI-H23 = assay: Cytotoxicity against human NCI-H23 cells assessed as cellular growth at 0.1 uM after 48 hrs by SRB assay relative to control; type: functional
HCC 2998 = assay: Cytotoxicity against human HCC2998 cells assessed as cellular growth at 0.01 uM after 48 hrs by SRB assay relative to control; type: functional
RPMI-8226 = assay: Cytotoxicity against human RPMI8226 cells assessed as cellular growth at 0.01 uM after 48 hrs by SRB assay relative to control; type: functional
CAKI-1 = assay: Cytotoxicity against human Caki1 cells assessed as cellular growth at 100 uM after 48 hrs by SRB assay relative to control; type: functional
SW-620 = assay: Cytotoxicity against human SW620 cells assessed as cellular growth at 1 uM after 48 hrs by SRB assay relative to control; type: functional
[18] = read-out: LC50 (the source's name)
[19] = read-out: pLC50 (the source's name) (converted)

## O=C(O)CCCn1c2c(sc3ccccc32)c(=O)n2nnc(-c3ccccc3)c12
[1]
  Activity: 90%
[2]
  Activity: 88%

## O=C(CCCn1c2c(sc3ccccc32)c(=O)n2nnc(-c3ccccc3)c12)NCCc1c[nH]cn1
[3]
  Activity: 101%
HCT-15 [4]
  Activity: 96%
NCI-H460
  Activity: 111%
PC-3 [5]
  Activity: -51%
CCRF-CEM
  Activity: 56%
ACHN
  Activity: -100%
[6]
  Activity: 32%
HT-29 [7]
  Activity: -100%
NCI-H522
  Activity: -25%
COLO 205
  Activity: -100%
786-0 [8]
  Activity: -89%
MDA-MB-468; read-out: GI50
  GI50: 0.339 µM
MDA-MB-468; [18]
  CC50: 3.77 µM
MDA-MB-468; read-out: TGI
  TGI: 1.21 µM
MDA-MB-468; read-out: pGI50 (converted)
  GI50: 0.339 µM
MDA-MB-468; [19]
  CC50: 3.8 µM
MDA-MB-468; read-out: pTGI (converted)
  TGI: 1.2 µM
PC-3 [9]
  Activity: 33%
786-0 [10]
  Activity: 53%
OVCAR-5 [11]
  Activity: 14%
HT-29 [12]
  Activity: 43%
HCT-15 [13]
  Activity: 29%
PC-3 [14]; read-out: GI50
  GI50: 0.0603 µM
PC-3 [14]; read-out: LC50
  LC50: 7.32 µM
PC-3 [14]; read-out: TGI
  TGI: 2.21 µM
PC-3 [14]; read-out: pGI50 (converted)
  GI50: 0.0603 µM
PC-3 [14]; read-out: pLC50 (converted)
  LC50: 7.24 µM
PC-3 [14]; read-out: pTGI (converted)
  TGI: 2.19 µM
[15]; read-out: GI50
  GI50: 1.07 µM
[15]; [18]
  CC50: > 100 µM
[15]; read-out: TGI
  TGI: > 100 µM
[15]; read-out: pGI50 (converted)
  GI50: 1.07 µM
OVCAR-5 [16]; read-out: GI50
  GI50: 0.0565 µM
OVCAR-5 [16]; [18]
  CC50: 4.06 µM
OVCAR-5 [16]; read-out: TGI
  TGI: 1.36 µM
OVCAR-5 [16]; read-out: pGI50 (converted)
  GI50: 0.0562 µM
OVCAR-5 [16]; [19]
  CC50: 4.07 µM
OVCAR-5 [16]; read-out: pTGI (converted)
  TGI: 1.35 µM
OVCAR-4; read-out: GI50
  GI50: 1.83 µM
OVCAR-4; [18]
  CC50: 8.02 µM
OVCAR-4; read-out: TGI
  TGI: 3.83 µM
OVCAR-4; read-out: pGI50 (converted)
  GI50: 1.82 µM
OVCAR-4; [19]
  CC50: 7.94 µM
OVCAR-4; read-out: pTGI (converted)
  TGI: 3.8 µM
IGROV-1; read-out: GI50
  GI50: 0.0997 µM
IGROV-1; [18]
  CC50: 5.04 µM
IGROV-1; read-out: TGI
  TGI: 2.07 µM
IGROV-1; read-out: pGI50 (converted)
  GI50: 0.1 µM
IGROV-1; [19]
  CC50: 5.01 µM
IGROV-1; read-out: pTGI (converted)
  TGI: 2.09 µM
U-251; read-out: GI50
  GI50: 0.165 µM
U-251; [18]
  CC50: 4.3 µM
U-251; read-out: TGI
  TGI: 1.85 µM
U-251; read-out: pGI50 (converted)
  GI50: 0.166 µM
U-251; [19]
  CC50: 4.27 µM
U-251; read-out: pTGI (converted)
  TGI: 1.86 µM
SNB-75; read-out: GI50
  GI50: 1.95 µM
SNB-75; [18]
  CC50: 6.32 µM
SNB-75; read-out: TGI
  TGI: 3.51 µM
SNB-75; read-out: pGI50 (converted)
  GI50: 1.95 µM
SNB-75; [19]
  CC50: 6.31 µM
SNB-75; read-out: pTGI (converted)
  TGI: 3.55 µM
SF-295; read-out: GI50
  GI50: 0.456 µM
SF-295; [18]
  CC50: 5.41 µM
SF-295; read-out: TGI
  TGI: 2.11 µM
SF-295; read-out: pGI50 (converted)
  GI50: 0.457 µM
SF-295; [19]
  CC50: 5.37 µM
SF-295; read-out: pTGI (converted)
  TGI: 2.09 µM
PC-3 [17]
  Activity: 40%
HCT-116
  Activity: 4%
NCI-H23
  Activity: 75%

## CN1CCN(CCCn2c3c(sc4ncccc43)c(=O)n3nnc(-c4ccccc4)c23)CC1
[3]
  Activity: 96%
HCT-15 [4]
  Activity: 94%
HCC 2998
  Activity: 104%
NCI-H460
  Activity: 102%
RPMI-8226
  Activity: 110%
CCRF-CEM
  Activity: 109%
CAKI-1
  Activity: -90%
ACHN
  Activity: -80%
[6]
  Activity: -62%
NCI-H522
  Activity: -35%
COLO 205
  Activity: -86%
786-0 [8]
  Activity: -84%
MDA-MB-468; read-out: GI50
  GI50: 1.82 µM
MDA-MB-468; [18]
  CC50: 5.96 µM
MDA-MB-468; read-out: TGI
  TGI: 3.29 µM
MDA-MB-468; read-out: pGI50 (converted)
  GI50: 1.82 µM
MDA-MB-468; [19]
  CC50: 6.03 µM
MDA-MB-468; read-out: pTGI (converted)
  TGI: 3.31 µM
786-0 [10]
  Activity: 100%
OVCAR-5 [11]
  Activity: 99%
SW-620
  Activity: 83%
HCT-15 [13]
  Activity: 89%
[15]; read-out: GI50
  GI50: 2.23 µM
[15]; [18]
  CC50: 43.2 µM
[15]; read-out: TGI
  TGI: 5.8 µM
[15]; read-out: pGI50 (converted)
  GI50: 2.24 µM
[15]; [19]
  CC50: 43.7 µM
[15]; read-out: pTGI (converted)
  TGI: 5.75 µM
OVCAR-5 [16]; read-out: GI50
  GI50: 2.69 µM
OVCAR-5 [16]; [18]
  CC50: > 100 µM
OVCAR-5 [16]; read-out: TGI
  TGI: 7.35 µM
OVCAR-5 [16]; read-out: pGI50 (converted)
  GI50: 2.69 µM
OVCAR-5 [16]; [19]
  CC50: > 100 µM
OVCAR-5 [16]; read-out: pTGI (converted)
  TGI: 7.41 µM
OVCAR-4; read-out: GI50
  GI50: 1.87 µM
OVCAR-4; [18]
  CC50: 8.04 µM
OVCAR-4; read-out: TGI
  TGI: 3.88 µM
OVCAR-4; read-out: pGI50 (converted)
  GI50: 1.86 µM
OVCAR-4; [19]
  CC50: 8.13 µM
OVCAR-4; read-out: pTGI (converted)
  TGI: 3.89 µM
IGROV-1; read-out: GI50
  GI50: 2 µM
IGROV-1; [18]
  CC50: 9.78 µM
IGROV-1; read-out: TGI
  TGI: 4.42 µM
IGROV-1; read-out: pGI50 (converted)
  GI50: 2 µM
IGROV-1; [19]
  CC50: 9.77 µM
IGROV-1; read-out: pTGI (converted)
  TGI: 4.47 µM
U-251; read-out: GI50
  GI50: 1.82 µM
U-251; read-out: TGI
  TGI: 3.43 µM
U-251; read-out: pGI50 (converted)
  GI50: 1.82 µM
U-251; read-out: pTGI (converted)
  TGI: 3.47 µM
SNB-75; read-out: GI50
  GI50: 7.71 µM
SNB-75; [18]
  CC50: 48.8 µM
SNB-75; read-out: TGI
  TGI: 21.7 µM
SNB-75; read-out: pGI50 (converted)
  GI50: 7.76 µM
SNB-75; [19]
  CC50: 49 µM
SNB-75; read-out: pTGI (converted)
  TGI: 21.9 µM
SF-295; read-out: GI50
  GI50: 1.96 µM
SF-295; [18]
  CC50: 6.96 µM
SF-295; read-out: TGI
  TGI: 3.7 µM
SF-295; read-out: pGI50 (converted)
  GI50: 1.95 µM
SF-295; [19]
  CC50: 6.92 µM
SF-295; read-out: pTGI (converted)
  TGI: 3.72 µM
HCT-116
  Activity: 96%
NCI-H23
  Activity: 93%

From ChEMBL document CHEMBL2401728, “An unexpected Dimroth rearrangement leading to annelated thieno[3,2-d][1,2,3]triazolo[1,5-a]pyrimidines with potent antitumor activity” (Eur J Med Chem, 2013)
